# Measurements taken from patent US9353092B2, “Synthesis and use of croconaine compounds” (University of Notre Dame du Lac, priority 2013, dated 2016).
# How the values were obtained:
# Format in all cases: physicochemical
# [1] = Laser photothermal heating of a solution (temperature change by thermocouple); conditions: for ΔT (temperature change during laser irradiation): 780 nm
# Text: This example describes a method of using compound 1 to increase the temperature of a solution. […] An Omega hypodermic thermocouple (HYPO-33-1-T-G-60-SMPW-M) was placed in the solution and the temperature measured using the associated USB converter. The Ti:Sapphire laser beam was aligned to pass through the solution (above the stirrer and avoiding close contact with the thermocouple) in an identical manner in every experiment. The laser wavelength was set at 780 and the power controlled to be 250 mW during all of the experiments, with a beam diameter of 0.3 cm.
# […] An Omega hypodermic thermocouple (HYPO-33-1-T-G-60-SMPW-M) was placed in the solution and the temperature measured using the associated USB converter. The Ti:Sapphire laser beam was aligned to pass through the solution (above the stirrer and avoiding close contact with the thermocouple) in an identical manner in every experiment. The laser wavelength was set at 780 or 808 nm and the power controlled to be 250 mW during all of the experiments, with a beam diameter of 0.3 cm.
# [2] = Absorbance of solutions in 4:1 MeOH/H2O; conditions: 780 nm
# [3] = Photobleaching / photostability under near-infrared laser irradiation; conditions: 4:1 MeOH/H2O; for Heating effect during extended near-infrared irradiation: 780 nm, 250 mW, 15 minute, 1.67 μg/mL croconaine 1, 2.00 μg/mL ICG, FIG. 13; for Change in absorbance after laser irradiation: FIGS. 14 and 15
# Protocol: These experiments were conducted in 4:1 MeOH/H2O, with 1.67 μg/mL of croconaine 1 and 2.00 μg/mL of ICG respectively. This difference in compound photobleaching was confirmed with studies that looked at changes in the compound absorption signal.
# [4] = 810 nm, 900 s, 260 mW, 0.005 mg/mL
compound,measurement,setting,value
C#CCOCCN(Cc1ccccc1)c1ccc(C2=C([O-])/C(=C3C=C/C(=[N+](\CCOCC#C)Cc4ccccc4)S\3)C(=O)C2=O)s1 [Compound 2],Ability to increase the temperature of a solution,"[1]; 2.0 or 50.0 μg/mL, 4:1 MeOH/H2O, 780 or 808 nm, 250 mW",same ability as compound 1
C#CCOCCN(CC)c1ccc(C2=C([O-])/C(=C3C=C/C(=[N+](/CC)CCOCC#C)S\3)C(=O)C2=O)s1 [Compound 1],ΔT (temperature change during laser irradiation),"[1]; 0.10 μg/mL, 4:1 MeOH/H2O, 250 mW",0.1 °C
same,ΔT (temperature change during laser irradiation),"[1]; 0.25 μg/mL, 4:1 MeOH/H2O, 250 mW",2.0 °C
same,ΔT (temperature change during laser irradiation),"[1]; 0.50 μg/mL, 4:1 MeOH/H2O, 250 mW",3.4 °C
same,ΔT (temperature change during laser irradiation),"[1]; 1.00 μg/mL, 4:1 MeOH/H2O, 250 mW",7.2 °C
same,ΔT (temperature change during laser irradiation),"[1]; 1.67 μg/mL, 4:1 MeOH/H2O, 250 mW",9.8 °C
same,ΔT (temperature change during laser irradiation),"[1]; 2.50 μg/mL, 4:1 MeOH/H2O, 250 mW",10.4 °C
same,ΔT (temperature change during laser irradiation),"[1]; 5.00 μg/mL, 4:1 MeOH/H2O, 250 mW",11.0 °C
same,ΔT (temperature change during laser irradiation),"[1]; 50.0 μg/mL, 4:1 MeOH/H2O, 250 mW",11.3 °C
same,Heating on laser irradiation at different wavelengths,"[1]; 4:1 MeOH/H2O, 0.05 mg/mL for laser experiments, FIG. 12",proportional to the amount of light absorbed
same,Dependence of heating on absorbance,"[1]; 780 nm laser light, Table 1, FIGS. 10 and 11",linear with absorbance from about A=0 until about A=1
same,A (absorbance value),[2]; 0.10 μg/mL,0.04
same,A (absorbance value),[2]; 0.25 μg/mL,0.11
same,A (absorbance value),[2]; 0.50 μg/mL,0.22
same,A (absorbance value),[2]; 1.00 μg/mL,0.46
same,A (absorbance value),[2]; 1.67 μg/mL,0.73
same,A (absorbance value),[2]; 2.50 μg/mL,1.13
same,A (absorbance value),[2]; 5.00 μg/mL,2.24
same,A (absorbance value),"[2]; 50.0 μg/mL, estimated",~22.4 (est)
same,Concentration dependence of absorbance,[2]; FIGS. 8 and 9,obeys the Beer-Lambert Law
same,Heating effect during extended near-infrared irradiation,[3],no heating effect loss
same,Change in absorbance after laser irradiation,[3]; [4],no change
"CC1(C)C(/C=C/C=C/C=C/C=C2\N(CCCCS(=O)(=O)O)c3ccc4ccccc4c3C2(C)C)=[N+](CCCCS(=O)(=O)[O-])c2ccc3ccccc3c21 [ICG, indocyanine green]",Heating effect during extended near-infrared irradiation,[3],loss of heating effect due to photobleaching
same,Decrease in the absorbance after laser irradiation,"[3]; 810 nm, 900 s, 260 mW, 0.005 mg/mL, FIG. 15",~50%
same,Change in absorbance after laser irradiation,[3]; [4],drop
